Experimental data reported in patent US10485746B2, “Synergistic antibacterial effects of magnolia bark extract and L-arginine, Nα-lauroyl ethyl ester on salivary bacteria” (WM. WRIGLEY JR. COMPANY, priority 2015, dated 2019).
Converted amounts (≈) assume the structure as drawn.

How the values were obtained:
[1] = tested on: S. mutans (ATCC No. 25715); experiment: MIC against S. mutans; type: cell-based; conditions: Streptococcus mutans, ATCC25715; 48 hours, 37° C., turbidity <0.05 absorbance at 660 nm
Text: (§1) One method of evaluating the efficacy of LAE and MBE against salivary bacteria is by determining the minimum inhibitory concentration (MIC). One suitable method for determining MIC is described in U.S. Pat. No. 7,470,442, which is herein incorporated by reference. Briefly, chlorhexidine is used as a positive control and sterile water is used as a negative control. Methanol and Tween 80 are used as a solvent for MBE. Tween 80 is the common name for Polysorbate 80. Ninety-six-well microtiter plates are used for this study. Each well contained 5×10^5 CFU/ml of bacteria, serially diluted agents and bacterial growth medium. All bacterial cultures are incubated at 37° C. and stationary. Bacterial growth is estimated spectrophotometrically at 660 nm, after 48 hours.
(§2) S. mutans (ATCC No. 25715), S. sobrinus (ATCC 33478), S. salivarius (ATCC 13419) and F. nucleatum (ATCC No. 10953) were purchased from American Type Culture Center (ATCC, MD). S. mutans, S. sobrinus, and S. salivarius were incubated for 24 hours in Schaedler broth containing 1 ppm vitamin K and 10 ppm hemin. F. nucleatum was incubated anaerobically for 48 hrs. […]
(§3) The MIC of LAE and MBE against the four oral bacteria described supra was determined. The effectiveness of MBE and LAE on total salivary bacteria was evaluated using whole saliva. […]

[2] = tested on: S. salivarius (ATCC 13419); experiment: MIC against S. salivarius; type: cell-based; conditions: Streptococcus salivarius, ATCC13419; 48 hours, 37° C., turbidity <0.05 absorbance at 660 nm
Text: as §1, §2, §3

S. sobrinus (ATCC 33478) [3] = experiment: MIC against S. sobrinus; type: cell-based; conditions: Streptococcus sobrinus, ATCC33478; 48 hours, 37° C., turbidity <0.05 absorbance at 660 nm
Text: as §1, §2, §3

[4] = tested on: F. nucleatum (ATCC No. 10953); experiment: MIC against F. nucleatum; type: cell-based; conditions: Fusobacterium nucleatum, ATCC10953; 48 hours, 37° C., turbidity <0.05 absorbance at 660 nm
Text: as §1, §2, §3

[5] = tested on: total salivary bacteria (whole saliva); experiment: MIC and FIC Index against total salivary bacteria (whole saliva); type: cell-based, human
Text: as §1
For testing total salivary bacteria (whole saliva), 30 ml of saliva was collected from a minimum of 3 healthy human volunteers by chewing a standard gum base. The freshly collected saliva was vortexed briefly and directly added to nutrient broth.
A 1% (w/v) solution of MBE powder (95% magnolol, 5% honokiol, Honsea Sunshine Biotech Co., Ltd., Guangzhou, China) in 100% ethanol was prepared, and used in the current example.
LAE-CF (containing 99% pure LAE) was obtained from Vedeqsa of Barcelona, Spain, and used in the current example.
The MIC of LAE and MBE against the four oral bacteria described supra was determined. The effectiveness of MBE and LAE on total salivary bacteria was evaluated using whole saliva.
Chlorhexidine was used as a positive control and sterile water was used as a negative control. MBE was dissolved in ethanol to produce a working solution containing 1% of MBE. It was added to Shaedler broth that contained 10 ppm of Hemin, 1 ppm of Vitamin K and a minimum of 1×10^6 CFU/ml of bacterial strains. […]
Calculation of the FIC is disclosed in U.S. Pat. No. 7,074,447, which is herein incorporated by reference. Briefly, the FIC Index is calculated according to the following formula: FIC=[QA/Qa+QB/Qb] where […]

[6] = tested on: S. mutans (ATCC No. 25715); experiment: MBC against S. mutans; type: cell-based; conditions: Streptococcus mutans, ATCC25715; kills at least 99.9% of initial inoculum
Experimental: (§4) Another method for evaluating the efficacy of LAE and MBE against salivary bacteria is by determining the minimum bactericidal concentration (MBC). One suitable method for determining MBC is described in U.S. Pat. No. 7,470,442. Briefly, the MBC is determined using the 96-well microtiter plate serial dilutions as described above for the MIC test. Serial dilutions of cultures in wells showing no visible growth are performed and 10 microliters of culture are plated in triplicate on blood agar plates. Viable colonies are scored after incubation of the plates for 48 hours at 37° C. For each test bacterium, the number of CFU/ml is determined in the initial inoculum. The MBC is defined as the lowest concentration of a test compound that killed at least 99.9% of the cells present in the initial inoculum. […] The MBC of MBE and LAE against the four oral bacteria described supra was determined using the MBC protocol set forth below. The effectiveness of MBE on total salivary bacteria was evaluated using whole saliva. The MBC was determined by serial dilutions as described above for the MIC test. […] Viable colonies were scored after incubation of the plates for 48 hours at 37° C. For each test bacterium, the number of CFU/ml was determined in the initial inoculum. […]

[7] = tested on: S. salivarius (ATCC 13419); experiment: MBC against S. salivarius; type: cell-based; conditions: Streptococcus salivarius, ATCC13419; kills at least 99.9% of initial inoculum
Experimental: as §4

S. sobrinus (ATCC 33478) [8] = experiment: MBC against S. sobrinus; type: cell-based; conditions: Streptococcus sobrinus, ATCC33478; kills at least 99.9% of initial inoculum
Experimental: as §4

[9] = tested on: F. nucleatum (ATCC No. 10953); experiment: MBC against F. nucleatum; type: cell-based; conditions: Fusobacterium nucleatum, ATCC10953; kills at least 99.9% of initial inoculum
Experimental: as §4

CCCCCCCCCCCC(=O)N[C@@H](CCCNC(=N)N)C(=O)OCC [LAE-CF, L-arginine, N^α-lauroyl ethyl ester]
MIC [1]: 6.3 µg/mL (≈ 16.4 µM) | MIC [2]: 6.3 µg/mL (≈ 16.4 µM) | MIC (S. sobrinus (ATCC 33478) [3]): 6.3 µg/mL (≈ 16.4 µM) | MIC [4]: 12.5 µg/mL (≈ 32.5 µM) | MIC Whole Saliva ([5]; 48 hours, 37° C., turbidity <0.05 absorbance at 660 nm): 50 ppm | MIC (ppm) on total salivary bacteria, component alone ([5]; Table 3, single agent): 50 ppm | FIC ([5]; total salivary bacteria, FIC<1 synergistic, 1≤FIC≤2 additive, 2<FIC antagonistic): 1 | MBC [6]: 12.5 µg/mL (≈ 32.5 µM) | MBC [7]: 12.5 µg/mL (≈ 32.5 µM) | MBC (S. sobrinus (ATCC 33478) [8]): 12.5 µg/mL (≈ 32.5 µM) | MBC [9]: 12.5 µg/mL (≈ 32.5 µM)
